Measurements published in patent publication US20090099214A1, “Organic Compounds” (Novartis AG, priority 2006, published 2009).
Counter-ions that a name gives are not always drawn.

Molecular target: adenosine A2a receptor (Homo sapiens, UniProt P29274)
Test: adenosine A2a receptor agonist test (method of Murphree et al / Hannon et al)
Assay type: binding
Protocol: Compounds of formula I and their pharmaceutically acceptable salts are useful as pharmaceuticals. In particular, they activate the adenosine A2a receptor activation, i.e. they act as A2a receptor agonists.
For example, the compounds of Examples 7, 8, 17, 19, and 38 have Ki values of 0.003, 0.002, 0.011, 0.008, and 0.007 μM respectively.

Sequence of adenosine A2a receptor (P29274 whole entry): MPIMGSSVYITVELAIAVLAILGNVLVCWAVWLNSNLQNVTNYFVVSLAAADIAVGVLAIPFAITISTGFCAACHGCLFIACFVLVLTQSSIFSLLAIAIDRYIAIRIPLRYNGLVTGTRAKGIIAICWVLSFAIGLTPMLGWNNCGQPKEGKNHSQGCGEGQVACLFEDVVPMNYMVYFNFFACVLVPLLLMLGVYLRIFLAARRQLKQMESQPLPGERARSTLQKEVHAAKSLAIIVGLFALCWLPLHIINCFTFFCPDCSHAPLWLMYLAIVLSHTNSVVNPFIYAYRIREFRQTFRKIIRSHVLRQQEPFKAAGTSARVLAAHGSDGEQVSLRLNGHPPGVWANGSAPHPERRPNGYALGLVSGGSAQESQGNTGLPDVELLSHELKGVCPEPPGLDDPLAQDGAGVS

Ki	SMILES
3 nM	CCC(=O)N[C@H]1C[C@@H](n2cnc3c(NCC(c4ccc(OC)cc4)c4ccc(OC)cc4)nc(N4CC[C@@H](NC(=O)N[C@@H]5CCNC5)C4)nc32)[C@H](O)[C@@H]1O [Example 7, N-((1S,2R,3S,4R)-4-{6-[2,2-Bis-(4-methoxy-phenyl)-ethylamino]-2-[(R)-3-((R)-3-pyrrolidin-3-ylureido)-pyrrolidin-1-yl]-purin-9-yl}-2,3-dihydroxy-cyclopentyl)-propionamide trifluoroacetate]
2 nM	CCC(=O)N[C@H]1C[C@@H](n2cnc3c(NCC(c4ccccc4)c4ccc(F)cc4)nc(N4CC[C@@H](NC(=O)N[C@@H]5CCNC5)C4)nc32)[C@H](O)[C@@H]1O (stereo partly drawn) [Example 8, N-((1S,2R,3S,4R)-4-{6-[2-(4-fluoro-phenyl)-2-phenyl-ethylamino]-2-[(R)-3-((R)-3-pyrrolidin-3-ylureido)-pyrrolidin-1-yl]-purin-9-yl}-2,3-dihydroxy-cyclopentyl)-propionamide trifluoroacetate]
11 nM	CCC(=O)N[C@H]1C[C@@H](n2cnc3c(NCCc4ccccc4-c4ccccc4)nc(N4CC[C@@H](NC(=O)N[C@@H]5CCNC5)C4)nc32)[C@H](O)[C@@H]1O [Example 17, N-((1S,2R,3S,4R)-4-{6-(2-biphenyl-2-yl-ethylamino)-2-[(R)-3-((R)-3-pyrrolidin-3-ylureido)-pyrrolidin-1-yl]-purin-9-yl}-2,3-dihydroxy-cyclopentyl)-propionamide trifluoroacetate]
8 nM	CCC(=O)N[C@H]1C[C@@H](n2cnc3c(NCC(c4ccc(OC)c(OC)c4)c4ccc(OC)c(OC)c4)nc(N4CC[C@@H](NC(=O)N[C@@H]5CCNC5)C4)nc32)[C@H](O)[C@@H]1O [Example 19, N-((1S,2R,3S,4R)-4-{6-[2,2-bis-(3,4-dimethoxy-phenyl)-ethylamino]-2-[(R)-3-((R)-3-pyrrolidin-3-ylureido)-pyrrolidin-1-yl]-purin-9-yl}-2,3-dihydroxy-cyclopentyl)-propionamide trifluoroacetate]
7 nM	CCC(=O)N[C@H]1C[C@@H](n2cnc3c(NCC(c4ccccc4)c4ccc(F)cc4)nc(NC4CCC(N)CC4)nc32)[C@H](O)[C@@H]1O (stereo partly drawn) [Example 38, N-((1S,2R,3S,4R)-4-{2-(4-Amino-cyclohexylamino)-6-[2-(4-fluoro-phenyl)-2-phenyl-ethylamino]-purin-9-yl}-2,3-dihydroxy-cyclopentyl)-propionamide trifluoroacetate]
